This is an account of results in ChEMBL document CHEMBL3046202, “Synthesis, spectral studies, antimicrobial and insect antifeedant potent keto oxiranes” (2011).

The source made the active and inactive calls. No cut-off for these calls is given here.

In one assay the test system is Pseudomonas. Description: Antibacterial activity against Pseudomonas assessed as diameter of growth zone inhibition at 250 ug/ml after 24-45 hrs by disc diffusion technique. In kind it is functional. As to conditions: read-out: DIZ. (In general: A growth-free zone around the sample is the usual read-out of agar diffusion tests.)
Assay [1] concerns Enterococcus faecalis. Description: Antibacterial activity against Enterococcus faecalis assessed as growth inhibition at 250 ug/ml after 24-45 hrs by disc diffusion technique. Format: functional, organism-based.
A further assay relates to Proteus vulgaris. Description: Antibacterial activity against Proteus vulgaris assessed as diameter of growth zone inhibition at 250 ug/ml after 24-45 hrs by disc diffusion technique. In kind it is functional. As to conditions: read-out: DIZ.
A further assay deals with Staphylococcus aureus. Description: Antibacterial activity against Staphylococcus aureus assessed as diameter of growth zone inhibition at 250 ug/ml after 24-45 hrs by disc diffusion technique. In kind it is functional. As to conditions: read-out: DIZ.
The subject of the next assay is Escherichia coli. Description: Antibacterial activity against Escherichia coli assessed as diameter of growth zone inhibition at 250 ug/ml after 24-45 hrs by disc diffusion technique. In kind it is functional. As to conditions: read-out: DIZ.
For the next assay, the system named is Klebsiella. As to the kind of experiment: Antibacterial activity against Klebsiella assessed as diameter of growth zone inhibition at 250 ug/ml after 24-45 hrs by disc diffusion technique. Format: functional. The following applies: read-out: DIZ.
For a further assay, the system named is Candida albicans. As to the kind of experiment: Antifungal activity against Candida albicans assessed as diameter of growth zone inhibition at 250 ug/ml after 72 hrs by disc diffusion technique. Format: functional. The following applies: read-out: DIZ.
A further assay has as its system Penicillium. Description: Antifungal activity against Penicillium assessed as growth inhibition at 50 ug/ml after 72 hrs by dilution method. Format: functional, organism-based.
For the next assay, the system named is Aspergillus niger. As to the kind of experiment: Antifungal activity against Aspergillus niger assessed as growth inhibition at 50 ug/ml after 72 hrs by dilution method. In kind it is functional, organism-based.
The test system of assay [2] is Achaea janata. As to the kind of experiment: Antifeedant activity against fourth-instar larval stage of Achaea janata L. in castor leaves assessed as decrease in leaf disc consumption at 200 ppm treated for 5 mins before larval infestation by leaf-disc bioassay method. Format: functional, organism-based.
The subject of assay [3] is Enterococcus faecalis. As to the kind of experiment: Antibacterial activity against Enterococcus faecalis assessed as diameter of growth zone inhibition at 250 ug/ml after 24-45 hrs by disc diffusion technique. The following applies: read-out: DIZ. In kind it is functional.
Assay [4] concerns Achaea janata. Description: Antifeedant activity against fourth-instar larval stage of Achaea janata L. in castor leaves assessed as decrease in leaf disc consumption at 50 to 200 ppm treated for 5 mins before larval infestation by leaf-disc bioassay method. Format: functional, organism-based.

On to `O=C(c1ccc(-c2ccccc2)cc1)[C@H]1O[C@@H]1c1ccc(O)cc1`, for which the zone of inhibition at 250 µg/mL with Pseudomonas was 13 mm; in the assay on Proteus vulgaris it was 13 mm; in the assay with Staphylococcus aureus it was 13 mm; in the assay on Escherichia coli, 13 mm; in the assay on Klebsiella, 13 mm; in the assay with Candida albicans, 20 mm. The “growth inhibition (GI)” value in the assay on Enterococcus faecalis [1] was “inactive”.

For the compound `O=C(c1ccc(-c2ccccc2)cc1)[C@H]1O[C@@H]1c1cccc(Br)c1`, the zone of inhibition at 250 µg/mL came out at 13 mm in the assay with Pseudomonas; 13 mm with Proteus vulgaris; 13 mm in the assay with Staphylococcus aureus; 13 mm in the assay with Escherichia coli; 13 mm in the assay with Klebsiella; 20 mm in the assay with Candida albicans. For the same compound, the “growth inhibition (GI)” value with Enterococcus faecalis [1] was “inactive”. For the same compound, the “growth inhibition (GI)” value with Penicillium and with Aspergillus niger was “Active” throughout. The result in the assay with Achaea janata [2] was Active.

Turning to `O=C(c1ccc(-c2ccccc2)cc1)[C@H]1O[C@@H]1c1ccc([N+](=O)[O-])cc1`, the zone of inhibition at 250 µg/mL in the assay on Pseudomonas, with Proteus vulgaris, with Staphylococcus aureus, in the assay with Escherichia coli and in the assay with Klebsiella was 13 mm each time. Also, the “growth inhibition (GI)” value in the assay on Enterococcus faecalis [1], with Penicillium and in the assay with Aspergillus niger was “inactive” in each case.

For `O=C(c1ccc(-c2ccccc2)cc1)[C@H]1O[C@@H]1c1ccccc1`, the zone of inhibition at 250 µg/mL in the assay on Pseudomonas, with Proteus vulgaris, in the assay with Staphylococcus aureus, in the assay on Escherichia coli and in the assay on Klebsiella was 8 mm in each case. Besides, the “growth inhibition (GI)” value in the assay on Enterococcus faecalis [1], in the assay on Penicillium and with Aspergillus niger was “inactive” throughout.

On to `Nc1cccc([C@H]2O[C@@H]2C(=O)c2ccc(-c3ccccc3)cc2)c1`, for which the zone of inhibition at 250 µg/mL in the assay on Pseudomonas came out at 13 mm; in the assay on Enterococcus faecalis [3], 20 mm; in the assay on Proteus vulgaris it was 13 mm; in the assay with Staphylococcus aureus, 20 mm; with Escherichia coli it was 20 mm; with Klebsiella, 20 mm.

Regarding `O=C(c1ccc(-c2ccccc2)cc1)[C@H]1O[C@@H]1c1ccccc1[N+](=O)[O-]`, the zone of inhibition at 250 µg/mL in the assay on Pseudomonas, with Proteus vulgaris, with Staphylococcus aureus, in the assay on Escherichia coli and in the assay on Klebsiella was 13 mm each time. Besides, the “growth inhibition (GI)” value in the assay with Enterococcus faecalis [1], with Penicillium and in the assay with Aspergillus niger was “inactive” each time.

Consider `CN(C)c1ccc([C@H]2O[C@@H]2C(=O)c2ccc(-c3ccccc3)cc2)cc1`, for which the zone of inhibition at 250 µg/mL with Pseudomonas worked out at 20 mm; with Proteus vulgaris, 13 mm; with Staphylococcus aureus, 20 mm; in the assay on Escherichia coli it was 20 mm; with Klebsiella it was 13 mm; in the assay on Candida albicans, 8 mm. Besides, in the assay on Enterococcus faecalis [1], the “growth inhibition (GI)” value is “inactive”. Besides, the “growth inhibition (GI)” value in the assay on Penicillium and in the assay on Aspergillus niger was “Active” throughout.

On to `O=C(c1ccc(-c2ccccc2)cc1)[C@H]1O[C@@H]1c1cccc([N+](=O)[O-])c1`, for which the zone of inhibition at 250 µg/mL in the assay on Pseudomonas, in the assay on Proteus vulgaris, in the assay with Staphylococcus aureus, in the assay with Escherichia coli and with Klebsiella was 13 mm each time. Besides, the “growth inhibition (GI)” value in the assay on Enterococcus faecalis [1] was “inactive”.

Regarding `O=C(c1ccc(-c2ccccc2)cc1)[C@H]1O[C@@H]1c1cccc(Cl)c1`, the zone of inhibition at 250 µg/mL with Pseudomonas, in the assay on Proteus vulgaris, in the assay on Staphylococcus aureus, in the assay on Escherichia coli and in the assay with Klebsiella was 13 mm throughout. In the assay on Enterococcus faecalis [1], the “growth inhibition (GI)” value is “inactive”. Moreover, the outcome in the assay on Achaea janata [2] was Active.

With `COc1ccc([C@H]2O[C@@H]2C(=O)c2ccc(-c3ccccc3)cc2)cc1`, the zone of inhibition at 250 µg/mL amounted to 13 mm in the assay on Pseudomonas; 20 mm in the assay on Enterococcus faecalis [3]; 13 mm in the assay with Proteus vulgaris; 13 mm in the assay with Staphylococcus aureus; 13 mm in the assay with Escherichia coli; 13 mm with Klebsiella. In addition, the zone of inhibition at 250 µg/mL in the assay on Candida albicans was determined as 20 mm. Also, the “growth inhibition (GI)” value in the assay on Penicillium is “Active”.

Regarding `O=C(c1ccc(-c2ccccc2)cc1)[C@H]1O[C@@H]1c1ccc(Cl)cc1`, the zone of inhibition at 250 µg/mL in the assay with Pseudomonas is 13 mm; in the assay with Proteus vulgaris, 13 mm; with Staphylococcus aureus, 13 mm; in the assay on Escherichia coli, 13 mm; in the assay on Klebsiella it was 13 mm; with Candida albicans it was 8 mm. The “growth inhibition (GI)” value in the assay on Enterococcus faecalis [1], in the assay on Penicillium and with Aspergillus niger was “inactive” each time. In the assay on Achaea janata [4], the result was Active.

On to `Nc1ccc([C@H]2O[C@@H]2C(=O)c2ccc(-c3ccccc3)cc2)cc1`, for which the zone of inhibition at 250 µg/mL in the assay with Pseudomonas was 13 mm; with Enterococcus faecalis [3] it was 20 mm; in the assay on Proteus vulgaris, 13 mm; in the assay on Staphylococcus aureus, 20 mm; in the assay on Escherichia coli, 20 mm; in the assay with Klebsiella, 20 mm.

Consider `Cc1ccc([C@H]2O[C@@H]2C(=O)c2ccc(-c3ccccc3)cc2)cc1`, for which the zone of inhibition at 250 µg/mL came to 13 mm in the assay with Pseudomonas; 8 mm with Enterococcus faecalis [3]; 8 mm with Proteus vulgaris; 8 mm in the assay with Staphylococcus aureus; 8 mm in the assay on Klebsiella. The “growth inhibition (GI)” value with Aspergillus niger is “inactive”.
